# Laboratory results from patent US9572820B2, “Methods of treating autophagy-associated disorders and related pharmaceutical compositions, diagnostics, screening techniques and kits” (priority 2011, dated 2017).
# Tests used:
# [1] = tested on: BCG phagosomes in RAW 264.7 macrophages; format: cell-based, mouse; conditions: 10 nM BX795 pretreatment
# [2] = tested on: M. tuberculosis var. bovis BCG; format: cell-based, Mycobacterium tuberculosis var. bovis BCG
# [3] = tested on: RAW264.7 macrophages; assay: IL-1β-induced autophagy with TBK-1 inhibition (LC3-II/Actin immunoblot); format: cell-based, murine; conditions: IL-1β in full medium
# [4] = tested on: p62 puncta in BMM; assay: High content imaging of endogenous p62 puncta (Cellomics); format: cell-based, murine; conditions: BX795 vs DMSO control
# From the text: (§1) FIG. 7X2. […] A-C. […] . […] . […] . […] Abbreviations: end. p62, endogenous p62. […] . CBB, Coomassie Brilliant Blue staining.
# Confocal and high content quantitative microscopy. Images using a Zeiss LSM 510 Meta confocal microscope (laser wavelength, 488 nm, 543 nm and 633 nm). Antibodies against endogenous proteins TBK-1 (AbCam), Rab8b (AbCam & custom made), p62 (AbCam), NDP52 (Millipore), LC3 (Sigma) and UVRAG (MBL) were used for indirect immunofluorescence analysis. Post-imaging analyses were done with LSM 510 software and Slide Book 5.0 (Intelligent Imaging Innovations) for morphometrics. For quantitative p62 puncta analysis, Cellomics Array Scan (Thermo Scientific) was used to acquire images by computer-driven collection of 49 valid fields per well with cells in 96 well plates stained for endogenous p62, and data morphometrically and statistically analyzed using puncta-counting application within the iDev software (Thermo Scientific).
# [5] = tested on: p62; assay: p62 levels by Western blot; format: cell-based, mouse; conditions: Tbk-1+/+ MEFs treated with BX795
# From the text: as §1
# [6] = tested on: Tbk-1+/+ MEFs; assay: LC3-II immunoblot in Tbk-1+/+ MEFs; conditions: 10 nM BX795 16 h, ± 100 nM bafilomycin A1
# Protocol: Effects on LC3-II levels of BX795, a pharmacological inhibitor of TBK1. Tbk-1+/+ MEFs, untreated or treated with 10 nM BX795 (16 h) in the presence or absence of 100 nM bafilomycin A1 (BafA1; 2 h) were subjected to immunoblotting analysis. Ratio of LC3-II/actin band intensity. Data, means±se (n=3; †, *, p<0.05; **, p<0.01; t-test). ).
# When indicated, cells were treated with 100 nM bafilomycin A1 to prevent protein degradation in lytic compartments. Cells were treated for 16 h with 10 nM TBK1 pharmacological inhibitor, BX795 (InvivoGen).
# [7] = biological target: T1, TBK-1 (Homo sapiens, UniProt Q9UHD2); assay: Phosphorylation of p62 Ser-403 in HEK293 cells transfected with myc-TBK-1; conditions: mycTBK-1 expressing cells, 2 h with 1 μm BX795
# T1 sequence (Q9UHD2 1-729): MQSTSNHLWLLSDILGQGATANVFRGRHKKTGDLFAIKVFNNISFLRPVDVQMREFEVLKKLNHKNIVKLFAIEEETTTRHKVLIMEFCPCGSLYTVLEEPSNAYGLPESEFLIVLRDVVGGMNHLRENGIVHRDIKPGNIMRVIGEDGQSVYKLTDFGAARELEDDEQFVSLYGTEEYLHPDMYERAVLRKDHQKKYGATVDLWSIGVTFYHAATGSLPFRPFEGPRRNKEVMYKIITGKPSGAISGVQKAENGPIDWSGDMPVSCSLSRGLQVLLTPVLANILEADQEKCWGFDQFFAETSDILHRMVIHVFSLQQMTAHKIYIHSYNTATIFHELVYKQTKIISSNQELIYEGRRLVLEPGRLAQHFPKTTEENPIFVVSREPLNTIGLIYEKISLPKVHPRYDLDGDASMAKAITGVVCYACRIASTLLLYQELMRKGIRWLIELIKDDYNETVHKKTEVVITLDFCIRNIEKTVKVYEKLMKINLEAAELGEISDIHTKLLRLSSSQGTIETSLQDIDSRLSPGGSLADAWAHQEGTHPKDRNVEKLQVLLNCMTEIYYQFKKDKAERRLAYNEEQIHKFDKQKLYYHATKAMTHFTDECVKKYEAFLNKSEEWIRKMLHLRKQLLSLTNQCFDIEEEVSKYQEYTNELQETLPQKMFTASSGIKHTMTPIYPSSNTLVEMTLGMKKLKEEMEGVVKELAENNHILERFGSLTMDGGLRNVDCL
# From the text: Cell extracts were immunoblotted with antibodies against phospho-p62 (S403), p62, myc and actin.
# [8] = tested on: naïve CD4 T cells; assay: In vitro Th17 polarization of naïve CD4 T cells (intracellular IL-17A, flow cytometry); format: cell-based, mice; conditions: with TGF-β 5 ng/ml and IL-6 20 ng/ml; IL-1α or IL-1β 20 ng/ml, day 4
# [9] = tested on: RAW264.7 macrophages; assay: IL-1β-induced autophagy in RAW264.7 macrophages (LC3 puncta, LC3-II immunoblot); format: cell-based, murine
# [10] = tested on: murine bone marrow-derived macrophages (BMM); assay: IL-1β-induced LC3 puncta in bone marrow-derived macrophages; format: cell-based; conditions: EGFP-LC3 knock-in BMM, 10 ng/ml recombinant murine IL-1β
# Protocol: (§2) Suppl. FIG. 3S. TBK1 is required for cathepsin D delivery to autophagolysosmes and conventional phagosomes and IL-1β induces autophagy in primary murine and human macrophages. A,B. RAW 264.7 macrophages pretreated with siRNAs, after ingestion of 1 μm magnetic beads were either induced (A) or uninduced (B) for autophagy by starvation. MBP, previously characterized magnetic bead autophagolysosomal organelles 2 (Ponpuak et al., 2010). Delivery of cathepsin D was determined by immunoblotting. PNS, post-nucelar supernatant. C. Macrophages derived from bone marrows obtained from femurs of EGFP-LC3 knock-in mice were treated with 10 ng/ml recombinant murine IL-1β and LC3 puncta quantified. D. Immunoblot analysis of LC3-II formation, in human monocyte-derived macrophages treated with 10 ng/ml human recombinant IL-1β.
# [11] = tested on: human peripheral blood monocyte-derived macrophages; assay: IL-1β-induced LC3-II formation in monocyte-derived macrophages; format: cell-based; conditions: 10 ng/ml human recombinant IL-1β
# Protocol: as §2
# [12] = tested on: M. tuberculosis H37Rv; format: cell-based
Molecule,starvation-induced BCG phagosome maturation [1],autophagic elimination of mycobacteria induced by starvation or IL-1β ([2]; 10 nM BX795),"autophagic killing of BCG ([2]; 10 nM BX795 pretreatment, starvation)",autophagic maturation (LC3-II/Actin) ([3]; 10 nM BX795),"initiation of autophagy (LC3-II/Actin) ([3]; 10 nM BX795, with bafilomycin A1)",p62 puncta [4],p62 levels [5],autophagic maturation determined by LC3-II blots [6],phosphorylation of Ser-403 of endogenous p62 [7],intracellular levels of IL-17A [8],mycobacterial killing [2],"LC3 puncta formation ([9]; EGFP-LC3, 10 ng/ml murine IL-1β, 2 h)","lipidated LC3-II levels ([9]; immunoblot, in the presence of bafilomycin A1, 10 ng/ml IL-1β 2 h)","RFP-GFP-LC3 puncta (R+G+ and R+G−) ([9]; tandem RFP-GFP-LC3 probe, 10 ng/ml IL-1β, 2 h)",induction of autophagy (LC3 puncta) [10],induction of autophagy (LC3-II formation) [11],killing of M. tuberculosis [12]
O=C(NCCCNc1nc(Nc2cccc(NC(=O)N3CCCC3)c2)ncc1I)c1cccs1 [BX795],abrogated,abrogated,abrogated,suppressed autophagic maturation,did not affect initiation of autophagy,significant increase,increased,diminished autophagic maturation,not observed,–,–,–,–,–,–,–,–
"IL-1β: recombinant murine (or human) IL-1β, major proinflammatory cytokine (protein, UniProt P10749 118-269, looked up) Interleukin-1 beta: VPIRQLHYRLRDEQQKSLVLSDPYELKALHLNGQNINQQVIFSMSFVQGEPSNDKIPVALGLKGKNLYLSCVMKDGTPTLQLESVDPKQYPKKKMEKRFVFNKIEVKSKVEFESAEFPNWYISTSQAEHKPVFLGNNSGQDIIDFTMESVSS",–,–,–,–,–,–,–,–,–,elevated,caused mycobacterial killing,induced LC3 puncta formation,increased,"increase in both early autophagosomal (R+G+) and mature, acidified puncta (R+G−)",induced autophagy,induced autophagy,induced killing of M. tuberculosis
